# In patent US5545648A (Canadian Spinal Research Organization, priority 1992, dated 1996):
# Several values for one entry are separate records, joined by “and”; a condition that tells them apart may be missing. Equal values may be shown once. Entries after “also recorded” stand apart in the source; their conditions may differ.
# Legend:
# [1] = test system: spinal cord injured patients; assay: Neurological examination, motor and sensory score (modified ASIA standards), double-blind placebo-controlled crossover study; assay type: in vivo, human; design: key to change in sensory score, -ve / change in sensory score, +ve / change in sensory score, -ve, TOTAL: change in summed sensory points (each item graded 0-4)
# Protocol: (§1) The experimental design was a double-blind, placebo-controlled, crossover study in which each patient was administered the drug and a vehicle control on different occasions, separated by two weeks. The order of delivery was randomized.
# (§2) The schedule of each trial was the same. The patient was admitted to the hospital on the preceding day and in the early morning was assessed by neurological examination and electro-diagnostic evaluation. Administration of the drug or placebo, through an in dwelling venous catheter, was then begun and continued for approximately 2 hours, arranged in 20 minute sequences based on delivery of 1 ml aliquots of the 4-AP solution. The patient was monitored electroencephalographically at frequent intervals throughout the procedure. Samples of blood and urine were obtained from an additional intravenous catheter and from the urinary catheter respectively. Blood was obtained at intervals up to 5 hours from the beginning of drug delivery and urine obtained pre-infusion and at 1 and 2 hours after the beginning of infusion. The patients were re-evaluated by complete neurological examination, by the same examiner, at the end of the period of drug delivery. They were then re-examined with the electrodiagnostic tests. A more limited neurological examination was sometimes performed during drug delivery in an attempt to identify any early changes, without producing significant testing fatigue. The electrodiagnostic tests were repeated at 2 hours after the cessation of drug delivery. Patients showing apparent effects of the treatment remained in the hospital overnight and were examined on the following day. Subsequent contact with the patients was by telephone interview or as a result of their correspondence regarding longer term changes associated with their treatment.
# (§3) Two of the patients who reported more prolonged effects of the drug were returned to the hospital after 4 months for a second, unblinded trial, which included neurological examinations daily for 3-4 days. Plasma samples were also obtained daily from these two patients, for measurement of 4-AP.
# Patients were evaluated using a modified form of the American Spinal Injury Association (ASIA) Standards for Neurological Classification of Spinal Injury Patients (revised 1990). The modifications were mainly required to simplify the examination so that it could be performed on patients lying on a bed with intravenous catheters, electrodes and urethral catheters restricting the range of motion. Examinations performed after the day of drug delivery were made on an outpatient basis with the subjects partially clothed, and evaluation of dermatomes was sometimes incomplete. Each part of the examination was videotaped for later review and was repeated on the two sides of the body.
# Grading of motor abilities was made on the ASIA 0-5 point scale wherever possible:
# 0--absent (total paralysis)
# 1--trace (palpable or visible contraction producing little or no movement around joint)
# 2--poor (active movement through much or all of the normal range of motion, with gravity eliminated--where relevant)
# 3--fair (active movement through full range of motion against gravity)
# 4--good (active movement against resistance)
# The muscles examined included: deltoid, biceps, triceps, wrist extensors, wrist flexors, finger flexors and extensors (combined), hip flexors (iliopsoas), hip extensors, quadriceps, hamstrings, ankle dorsiflexors (tibiails anterior) and plantarflexors (gastrocnemius, soleus), and toe extensors (extensor hallucis longus). The total possible score for the full motor examination was 130.
# Sensory abilities were graded on an analogous 0-4 point scale:
# 0--absent (no ability to detect the stimulus)
# 1--trace (patchy or variable ability to detect stimulus with little or no resolution of quality)
# 2--light (able to detect stimulus but much weaker, or of altered quality relative to equivalent unaffected areas) […]
# [2] = test system: animals with experimental or naturally occurring spinal cord injuries; conditions: intravenous injection; cited from earlier work
# [3] = test system: spinal cord injured patients; assay: Deep tendon (segmental) reflex score; assay type: in vivo, human
# Protocol: as §2
# Segmental reflexes (biceps, triceps, knee- and ankle-jerk) were evaluated in the conventional manner with a reflex hammer and scored on a 0-4 point scale:
# 0--no detectable response
# 2--brisk response of normal amplitude
# 3--abnormally large amplitude response
# 4--large amplitude response with some clonus.
# The total possible score in a patient with hyperreflexia and clonus in all tested muscles was 32.
# [4] = test system: synaptic transmission in the spinal cord; conditions: relatively high concentrations; cited from earlier work
# [5] = test system: spinal cord injured patients; assay: Effects reported by the subjects and overall clinical benefit (function, chronic pain, spasticity); assay type: in vivo, human
# Protocol: as §1, §2, §3
# [6] = test system: multiple sclerosis patients; conditions: cited from earlier work
# [7] = test system: spinal cord injured patients; assay: Negative side-effects, EEG and vital sign monitoring; assay type: in vivo, human
# Protocol: as §2
# (§4) Immediately before and after the infusion of 4-AP or placebo, and at approximately 2 hours after the end of the infusion, patients were evaluated with a set of standard electro-diagnostic tests: conduction in peroneal, posterior tibial and sural nerves, electromyography of tibial is anterior and gastroc-nemius muscles during rest and maximal voluntary contraction, and somatosensory evoked potentials. Patients were also monitored with electroencephalography, at intervals during the infusion, to look for evidence of potential for seizure activity.
# [8] = test system: spinal cord injured patients; assay: Electrodiagnostic testing (nerve conduction, electromyography, somatosensory evoked potentials); assay type: in vivo, human
# Protocol: as §2, §4
# [9] = 2 hours after infusion of 4-AP, total of 8 subjects
# [10] = 2 hours after infusion of 4-AP, total of 8 subjects, without vibration
# [11] = 2 hours after infusion of 4-AP, total possible 130, one line per subject: b160 RB, b161 SC, HT, LJ, EB, GCh, AW, GCu
# [12] = 2 hours after infusion of 4-AP, total possible 224, without vibration, one line per subject: b160 RB, b161 SC, HT, LJ, EB, GCh, AW, GCu
# [13] = 2 hours after infusion of 4-AP, total of subjects
# [14] = subject named in the block (LJ; EB; GCh; AW)
smiles,measurement,setting,value
"Nc1ccncc1 [4-AP, 4-aminopyridine]","change in motor score, +ve, TOTAL",[1]; [9],+26
same,"change in motor score, -ve, TOTAL",[1]; [9],0
same,"change in sensory score, +ve, TOTAL",[1]; [10],+66
same,"change in sensory score, -ve, TOTAL",[1]; [10],-7
same,"change in motor score, +ve",[1]; [11],0 and +4 and +16 and +2
same,"change in motor score, -ve",[1]; [11],0
same,"change in sensory score, +ve",[1]; [12],0 and +3 and +2 and +14 and +27 and +20
same,"change in sensory score, -ve",[1]; [12],0 and -5 and -2
same,initial pinprick response in most distal dermatomes,"[1]; 2 hours after infusion, second trial",initial depression of response in the most distal dermatomes
same,pinprick sensation and joint position sense below the lesion,"[1]; 24 hours, not seen at 2 hours, subject three",striking improvement of pinprick sensation and joint position sense below the lesion
same,persistence of motor score increase,"[1]; 24 hours, second trial, subject four",increases in score were sustained at 24 hours after infusion
same,persistence of pinprick improvement,"[1]; 48 hours post infusion, second trial, EB and GCh",still detectable at 48 hour post infusion in both cases
same,reversal of sensory effect,"[1]; 72 hours, subject GCh, second trial",returned completely to pre-infusion status; also recorded: entirely reversed by 72 hours
same,time of maximal motor improvement,"[1]; after infusion, second trial, subject four (FIG. 5)",2 h
same,time of maximal improvement in sensory (pinprick) score,"[1]; after infusion, second trial, subjects",24 h
same,"motor performance, greater endurance / reversal of leg muscle rigidity effects","[1]; second administration, leg muscles, hip and knee",reduction in the spasticity of leg muscles led at times to a reduction of motor power
same,pinprick sensation below level of injury,"[1]; second, unblinded administration, EB and GCh",remarkable increase in the response to pinprick stimulation below the level of injury
same,electrophysiological and behavioral function,[2],"significant improvements in electrophysiological (Blight and Gruner, 1987) and behavioral function"
same,deep tendon reflex scores at 24 and 48 hours,"[3]; 24 and 48 hours, EB, GCh",slight reductions in deep tendon reflex scores at 24 and 48 hours after infusion
same,"change in score for deep tendon reflexes, arms, TOTAL",[3]; [13],+13
same,"change in score for deep tendon reflexes, legs, TOTAL",[3]; [13],+2
same,"change in score for deep tendon reflexes, legs","[3]; 2 hours after infusion of 4-AP, total possible 32, subject one, SC, HT, GCh, AW, GCu",+2 and +1 and -2 and 0 and +3
same,"change in score for deep tendon reflexes, arms","[3]; 2 hours after infusion of 4-AP, total possible 32, subject one, SC, HT, GCh, GCu",+4 and +1 and 0
same,reflex responses at 24 hours,"[3]; 24 hours, AW, LJ",reduced reflex responses
same,deep tendon reflex amplitude immediately after infusion,[3]; predominantly in the arms,marked tendency for increase in amplitude of deep tendon reflexes
same,synaptic transmission in the spinal cord,[4],enhance synaptic transmission in the spinal cord
same,reproduction of effects at second administration,"[5]; 4 months later, two subjects GCh, EB","effects and side effects similar to those seen in the earlier, blinded administration; also recorded: the effects were reproduced by a second administration of the drug 4 months later in two of the subjects"
same,return to usual state,"[5]; after infusion, subject gamma",≤ 3 days
same,"increase in strength of arms and right leg, reported by subject","[5]; day after infusion, subject beta",about 25%
same,delayed or prolonged effects reported,[5]; five patients with less complete injuries,all reported some delayed or prolonged effects
same,duration of self-sustaining changes in the nervous system,"[5]; human, in vivo",1 to 2 days
same,patients desiring to receive the drug regularly,"[5]; human, in vivo",four of the patients expressed a strong desire to be able to receive the drug on a regular basis
same,reduced usage of analgesic,"[5]; human, in vivo",greatly reduced usage of analgesic in one case
same,reduced usage of antispastic medication,"[5]; human, in vivo",antispastic medication in at least two cases
same,relation between side-effects and apparent benefit,"[5]; human, in vivo",no relation between the appearance of side-effects and apparent benefit
same,motor and/or sensory effects in incomplete injuries,[5]; remaining 5 subjects,showed motor and/or sensory effects
same,duration of markedly reduced spasticity,"[5]; second infusion, subject gamma",more than 24 hours
same,duration of improved function,[5]; some subjects,over 48 hours
same,"reduction of chronic pain and spasticity, motor control and sensory ability (overall)",[5]; spinal cord injured individuals,relief of chronic pain and spasticity; also recorded: can increase motor control and sensory ability and reduce chronic pain and spasticity; also recorded: long lasting reductions in spasticity and in chronic pain and dysesthesias; also recorded: shown to reduce chronic pain and spasticity in certain individuals
same,proportion of patients with incomplete injury showing benefit,[5]; spinal cord injury patients,5 of 6 and 5 of the 6
same,duration of reduction in spasticity,[5]; subject four,three days
same,dysesthesia (persistent itch in one shoulder),[5]; subject four,no change in this condition
same,return to normal requirement for Baclofen,[5]; subject four,only returned to their normal requirement for Baclofen on the fourth day
same,"finger movements back and forth, left hand","[5]; subject four, normally a few flickers",20-30 times
same,duration of absence of pain in the legs,[5]; subject gamma,at least 2 days
same,"sensation, reported by subject",[5]; [14],more sensation below the level of injury; also recorded: remarkable return of sensation below the level of the injury to virtually normal sensation on both sides; also recorded: marked improvement in sensation below the lesion; also recorded: increased sensation; also recorded: more sensation and strength in their legs
same,"chronic pain / paresthesia, reported by subject",[5]; subject named in the block (LJ; GCh; GCu),"The usual burning pain they experienced in their buttocks was absent, though there was still some burning in their lower limbs, which had increased; also recorded: the pain in the legs was absent, though it remained to some extent in their feet; also recorded: reduction of chronic pain; also recorded: significant reduction in the usual tingling paresthesia in their hands"
same,"movement / motor power, reported by subject","[5]; subject named in the block (b79 LJ; b81 EB; b83, b84 GCh; b86 AW; b88 GCu)",slightly greater movement in one thumb and index finger; also recorded: increased motor power in the left arm and leg; also recorded: greater endurance; also recorded: motor endurance below the level of the injury; also recorded: improved strength and sensation in their legs; also recorded: their arms and right leg had been stronger
same,spasticity,"[5]; subject named in the block (b81 EB; b83, b84 GCh)",marked reduction in spasticity; also recorded: decrease in spasticity
same,breathing,[5]; subject two,marked improvement in breathing
same,duration of motor and sensory effects incl. improved breathing,[5]; subject two,about 2 days
same,infused dose at which lower limb strength increased,[5]; subject two,8 mg
same,"relief of chronic, painful dysesthesias below the lesion","[5]; subjects, predominantly proximal in the limb",considerable relief
same,beneficial effects in neurologically complete lesions,[5]; two patients,"Two patients with neurologically ""complete"" spinal cord lesions showed no beneficial effects"
same,motor strength and sensory deficits,[6],selective increases in motor strength and recovery of sensory deficits
same,most frequent side effect: arm discomfort,[7]; arm in which the drug was infused,discomfort in the arm in which the drug was infused
same,adverse indications on EEG and vital signs,[7]; during infusion,No adverse indications were detected
same,duration of warm sensation under the skin from neck to back,[7]; subject four,two days
same,side effects in individual subject,[7]; [14],"pain in the left arm, and some nausea and light-headedness; also recorded: ""warm sensation under the skin from neck to back"" for two days and an episode of constipation; also recorded: no negative side effects; also recorded: After 21 mg of the infusion, their arm became quite painful and they became anxious, then angry, and began to show alternative bouts of sweating and shivering"
same,infusion suspended / not completed,"[7]; subject two, 25 mg rather than planned 30 mg","Infusion was suspended in this case because of a combination of discomfort in the arm at the site of infusion, and a significant degree of agitation and anxiety"
same,electromyographic data,[8]; after 4-AP,consistent with observed changes in strength of muscle contraction
same,peripheral nerve conduction,[8]; after 4-AP,No consistent effects on peripheral nerve conduction
same,"somatosensory evoked potentials (posterior tibial nerve stimulation), no detectable response","[8]; six subjects, before or after injection",no detectable somatosensory evoked potentials
same,form or amplitude of somatosensory evoked potentials,"[8]; subjects, following 4-AP",did not change significantly in form or amplitude
